For seven compounds, EC50 results are on record in patent US20160318987A1 (MEDIMMUNE LIMITED, priority 2013, published 2016).

Type in all cases: cell-based
Settings in all cases: n = 2

For one experiment, the target named is T1, hGIP-R (Homo sapiens, UniProt P48546).
T1 construct: expressed in transfected cells
T1 sequence (P48546 22-466): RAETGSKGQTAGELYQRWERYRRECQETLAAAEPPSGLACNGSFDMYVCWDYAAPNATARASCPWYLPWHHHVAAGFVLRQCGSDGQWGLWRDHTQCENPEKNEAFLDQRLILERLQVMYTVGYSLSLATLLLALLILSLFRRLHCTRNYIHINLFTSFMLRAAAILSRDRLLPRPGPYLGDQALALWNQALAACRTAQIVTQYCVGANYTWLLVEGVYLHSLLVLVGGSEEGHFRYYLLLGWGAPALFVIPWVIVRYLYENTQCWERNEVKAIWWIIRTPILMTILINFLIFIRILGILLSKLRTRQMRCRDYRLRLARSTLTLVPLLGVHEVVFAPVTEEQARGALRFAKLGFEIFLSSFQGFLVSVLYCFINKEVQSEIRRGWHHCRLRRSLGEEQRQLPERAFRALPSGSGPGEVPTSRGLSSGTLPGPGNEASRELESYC
In words: cAMP functional assay, cells expressing human GIP receptor (primary assay).

A further experiment deals with T2, hGluc-R (Homo sapiens, UniProt P47871).
T2 construct: expressed in transfected cells
T2 sequence (P47871 26-477): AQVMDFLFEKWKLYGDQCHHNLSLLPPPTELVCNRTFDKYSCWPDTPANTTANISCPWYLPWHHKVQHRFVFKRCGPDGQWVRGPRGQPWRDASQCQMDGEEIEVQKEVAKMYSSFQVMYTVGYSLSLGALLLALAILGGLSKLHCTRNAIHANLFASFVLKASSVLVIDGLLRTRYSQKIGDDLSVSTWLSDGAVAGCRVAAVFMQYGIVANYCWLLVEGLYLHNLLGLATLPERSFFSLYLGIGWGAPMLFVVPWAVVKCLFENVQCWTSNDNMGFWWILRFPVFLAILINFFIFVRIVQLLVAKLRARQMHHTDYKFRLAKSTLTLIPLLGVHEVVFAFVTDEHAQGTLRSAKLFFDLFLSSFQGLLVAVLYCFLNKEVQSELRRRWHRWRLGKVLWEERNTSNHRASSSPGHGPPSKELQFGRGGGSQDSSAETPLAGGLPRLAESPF
In words: cAMP functional assay, cells expressing human glucagon receptor (primary assay).

The target in a further experiment is T3, hGLP-1R (Homo sapiens, UniProt P43220).
T3 construct: expressed in transfected cells
T3 sequence (P43220 24-463): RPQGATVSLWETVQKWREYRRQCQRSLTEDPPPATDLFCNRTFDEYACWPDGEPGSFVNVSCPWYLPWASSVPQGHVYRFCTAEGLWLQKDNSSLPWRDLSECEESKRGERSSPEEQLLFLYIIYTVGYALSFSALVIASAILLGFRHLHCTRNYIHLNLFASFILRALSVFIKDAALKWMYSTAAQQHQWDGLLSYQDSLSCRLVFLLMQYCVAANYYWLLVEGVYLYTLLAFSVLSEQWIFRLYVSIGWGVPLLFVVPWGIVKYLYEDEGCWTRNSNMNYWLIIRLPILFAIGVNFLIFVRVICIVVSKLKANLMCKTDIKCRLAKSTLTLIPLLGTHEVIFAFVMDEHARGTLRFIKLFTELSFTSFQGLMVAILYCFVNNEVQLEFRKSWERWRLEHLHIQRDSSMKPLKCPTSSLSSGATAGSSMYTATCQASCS
In words: cAMP functional assay, cells expressing human GLP-1 receptor (primary assay).

pEC50: −log10 of the molar value. *1 amine or outer side, *2 acyl side, *3 side chain or, on linkers, in order; H or OH if unused. Where a SMILES comes first, the peptide text is derived from it. Side-chain parts run from the residue outwards. [ ]: non-standard residue; d: D form. The star is where a group is joined. γGlu = O=C(O)[C@H](CCC(=O)[*:2])N[*:1]; Palmitoyl = CCCCCCCCCCCCCCCC(=O)*; αMeF = C[C@](N)(Cc1ccccc1)C(=O)O; αMeK = C[C@](N)(CCCCN)C(=O)O; Aib = CC(C)(N)C(=O)O

Regarding `CC[C@H](C)[C@H](NC(=O)[C@](C)(Cc1ccccc1)NC(=O)[C@H](CCC(=O)O)NC(=O)[C@](C)(CCCCN)NC(=O)[C@H](C)NC(=O)[C@H](C)NC(=O)[C@H](CCC(N)=O)NC(=O)CNC(=O)[C@H](CCC(=O)O)NC(=O)[C@H](CC(C)C)NC(=O)[C@](C)(Cc1ccccc1)NC(=O)[C@H](CO)NC(=O)[C@H](CO)NC(=O)[C@@H](NC(=O)[C@H](CC(=O)O)NC(=O)[C@H](CO)NC(=O)[C@@H](NC(=O)[C@](C)(Cc1ccccc1)NC(=O)[C@H](CO)NC(=O)CNC(=O)[C@H](CCC(=O)O)NC(=O)C(C)(C)NC(=O)[C@@H](N)Cc1c[nH]cn1)[C@@H](C)O)C(C)C)C(=O)N[C@@H](C)C(=O)N[C@@](C)(Cc1ccccc1)C(=O)N[C@@H](CC(C)C)C(=O)N[C@H](C(=O)N[C@@H](CCCCN)C(=O)NCC(=O)NCC(N)=O)C(C)C` [SEQ ID NO: 44, H-(Aib)^2-EG-(S)^5-(α-MeF)^6-TSDV^10 SS-(α-MeF)^13-LE^15 GQAA-(α-MeK)^20 E-(α-MeF)^22-IA-(α-MeF)^25 LVKG-(G)^30] (H-H[Aib]EGS[αMeF]TSDVSS[αMeF]LEGQAA[αMeK]E[αMeF]IA[αMeF]LVKGG-NH2), the figures for the negative-log EC50 (pEC50) at hGIP-R, on hGluc-R and at hGLP-1R were 6.98, 6.98 and 11.01, respectively.
For the compound `CC[C@H](C)[C@H](NC(=O)[C@](C)(Cc1ccccc1)NC(=O)[C@H](CCC(=O)O)NC(=O)[C@H](CCCCN)NC(=O)[C@H](C)NC(=O)[C@H](C)NC(=O)[C@H](CCC(N)=O)NC(=O)CNC(=O)[C@H](CCC(=O)O)NC(=O)[C@H](CC(C)C)NC(=O)[C@](C)(Cc1ccccc1)NC(=O)[C@H](CO)NC(=O)[C@H](CO)NC(=O)[C@@H](NC(=O)[C@H](CC(=O)O)NC(=O)[C@H](CO)NC(=O)[C@@H](NC(=O)[C@](C)(Cc1ccccc1)NC(=O)[C@H](CO)NC(=O)CNC(=O)[C@H](CCC(=O)O)NC(=O)C(C)(C)NC(=O)[C@@H](N)Cc1c[nH]cn1)[C@@H](C)O)C(C)C)C(=O)N[C@@H](C)C(=O)N[C@@](C)(Cc1ccccc1)C(=O)N[C@@H](CC(C)C)C(=O)N[C@H](C(=O)N[C@@](C)(CCCCN)C(=O)NCC(=O)NCC(N)=O)C(C)C` [SEQ ID NO: 45, H-(Aib)^2-EG-(S)^5-(α-MeF)^6-TSDV^10 SS-(α-MeF)^13-LE^15 GQAAK^20 E-(α-MeF)^22-IA-(α-MeF)^25 LV-(α-MeK)^28-G-(G)^30] (H-H[Aib]EGS[αMeF]TSDVSS[αMeF]LEGQAAKE[αMeF]IA[αMeF]LV[αMeK]GG-NH2), the pEC50 (as a rule, the negative decadic logarithm of the EC50, by convention in mol/L) was 6.98 on hGIP-R, 6.98 on hGluc-R and 10.65 at hGLP-1R.
As for `CCCCCCCCCCCCCCCC(=O)NCCCC[C@H](NC(=O)CNC(=O)CNC(=O)[C@](C)(CCCCN)NC(=O)[C@@H](NC(=O)[C@H](CC(C)C)NC(=O)[C@](C)(Cc1ccccc1)NC(=O)[C@H](C)NC(=O)[C@@H](NC(=O)[C@](C)(Cc1ccccc1)NC(=O)[C@H](CCC(=O)O)NC(=O)[C@](C)(CCCCN)NC(=O)[C@H](C)NC(=O)[C@H](C)NC(=O)[C@H](CCC(N)=O)NC(=O)CNC(=O)[C@H](CCC(=O)O)NC(=O)[C@H](CC(C)C)NC(=O)[C@](C)(Cc1ccccc1)NC(=O)[C@H](CO)NC(=O)[C@H](CO)NC(=O)[C@@H](NC(=O)[C@H](CC(=O)O)NC(=O)[C@H](CO)NC(=O)[C@@H](NC(=O)[C@](C)(Cc1ccccc1)NC(=O)[C@H](CO)NC(=O)CNC(=O)[C@H](CCC(=O)O)NC(=O)C(C)(C)NC(=O)[C@@H](N)Cc1c[nH]cn1)[C@@H](C)O)C(C)C)[C@@H](C)CC)C(C)C)C(N)=O` [SEQ ID NO: 47, H-(Aib)^2-EG-(S)^5-(α-MeF)^6-TSDV^10 SS-(α-MeF)^13-LE^15 GQAA-(α-MeK)^20 E-(α-MeF)^22-IA-(α-MeF)^25 LV-(α-MeK)^28-G-(G)^30-K(Ε-Palm)] (H-H[Aib]EGS[αMeF]TSDVSS[αMeF]LEGQAA[αMeK]E[αMeF]IA[αMeF]LV[αMeK]GGK(Palmitoyl)-NH2), the results for the negative logarithm of the EC50 (pEC50) on hGIP-R, at hGluc-R and on hGLP-1R were 7.03, 7.03 and 9.98, respectively.
For the compound `CC[C@H](C)[C@H](NC(=O)[C@](C)(Cc1ccccc1)NC(=O)[C@H](CCC(=O)O)NC(=O)[C@H](CCCCN)NC(=O)[C@H](C)NC(=O)[C@H](C)NC(=O)[C@H](CCC(N)=O)NC(=O)CNC(=O)[C@H](CCC(=O)O)NC(=O)[C@H](CC(C)C)NC(=O)[C@](C)(Cc1ccccc1)NC(=O)[C@H](CO)NC(=O)[C@H](CO)NC(=O)[C@@H](NC(=O)[C@H](CC(=O)O)NC(=O)[C@H](CO)NC(=O)[C@@H](NC(=O)[C@](C)(Cc1ccccc1)NC(=O)[C@H](CO)NC(=O)CNC(=O)[C@H](CCC(=O)O)NC(=O)C(C)(C)NC(=O)[C@@H](N)Cc1c[nH]cn1)[C@@H](C)O)C(C)C)C(=O)N[C@@H](C)C(=O)N[C@@](C)(Cc1ccccc1)C(=O)N[C@@H](CC(C)C)C(=O)N[C@H](C(=O)N[C@@H](CCCCN)C(=O)NCC(=O)NCC(=O)N[C@@H](CO)C(=O)N[C@@H](CO)C(=O)NCC(=O)N[C@@H](CO)C(=O)N[C@@H](CO)C(=O)NCC(=O)N[C@@H](CO)C(=O)N[C@@H](CO)C(=O)NCC(=O)N[C@@H](CCCCN)C(N)=O)C(C)C` [SEQ ID NO: 48, H-(Aib)^2-EG-(S)^5-(α-MeF)^6-TSDV^10 SS-(α-MeF)^13-LE^15 GQAAK^20 E-(α-MeF)^22-IA-(α-MeF)^25 LVKG-(G)^30-(SSG)3-K] (H-H[Aib]EGS[αMeF]TSDVSS[αMeF]LEGQAAKE[αMeF]IA[αMeF]LVKGGSSGSSGSSGK-NH2), the values for the pEC50 on hGIP-R, on hGluc-R and on hGLP-1R were 7.08, 7.08 and 10.62, respectively.
Regarding `CCCCCCCCCCCCCCCC(=O)N[C@@H](CCC(=O)NCCCC[C@H](NC(=O)CNC(=O)[C@H](CO)NC(=O)[C@H](CO)NC(=O)CNC(=O)[C@H](CO)NC(=O)[C@H](CO)NC(=O)CNC(=O)[C@H](CO)NC(=O)[C@H](CO)NC(=O)CNC(=O)CNC(=O)[C@H](CCCCN)NC(=O)[C@@H](NC(=O)[C@H](CC(C)C)NC(=O)[C@](C)(Cc1ccccc1)NC(=O)[C@H](C)NC(=O)[C@@H](NC(=O)[C@](C)(Cc1ccccc1)NC(=O)[C@H](CCC(=O)O)NC(=O)[C@H](CCCCN)NC(=O)[C@H](C)NC(=O)[C@H](C)NC(=O)[C@H](CCC(N)=O)NC(=O)CNC(=O)[C@H](CCC(=O)O)NC(=O)[C@H](CC(C)C)NC(=O)[C@](C)(Cc1ccccc1)NC(=O)[C@H](CO)NC(=O)[C@H](CO)NC(=O)[C@@H](NC(=O)[C@H](CC(=O)O)NC(=O)[C@H](CO)NC(=O)[C@@H](NC(=O)[C@](C)(Cc1ccccc1)NC(=O)[C@H](CO)NC(=O)CNC(=O)[C@H](CCC(=O)O)NC(=O)C(C)(C)NC(=O)[C@@H](N)Cc1c[nH]cn1)[C@@H](C)O)C(C)C)[C@@H](C)CC)C(C)C)C(N)=O)C(=O)O` [SEQ ID NO: 49, H-(Aib)^2-EG-(S)^5-(α-MeF)^6-TSDV^10 SS-(α-MeF)^13-LE^15 GQAAK^20 E-(α-MeF)^22-IA-(α-MeF)^25 LVKG-(G)^30-(SSG)3-K(Ε-γ-E-Palm)] (H-H[Aib]EGS[αMeF]TSDVSS[αMeF]LEGQAAKE[αMeF]IA[αMeF]LVKGGSSGSSGSSGK([γGlu-Palmitoyl])-NH2), the pEC50 at hGIP-R is 7.39; on hGluc-R, 7.12; on hGLP-1R it was 11.03.
For `CC[C@H](C)[C@H](NC(=O)[C@](C)(Cc1ccccc1)NC(=O)[C@H](CCC(=O)O)NC(=O)[C@](C)(CCCCN)NC(=O)[C@H](C)NC(=O)[C@H](C)NC(=O)[C@H](CCC(N)=O)NC(=O)CNC(=O)[C@H](CCC(=O)O)NC(=O)[C@H](CC(C)C)NC(=O)[C@](C)(Cc1ccc(O)cc1)NC(=O)[C@H](CO)NC(=O)[C@H](CO)NC(=O)[C@@H](NC(=O)[C@H](CC(=O)O)NC(=O)[C@H](CO)NC(=O)[C@@H](NC(=O)[C@](C)(Cc1ccccc1)NC(=O)[C@H](CO)NC(=O)CNC(=O)[C@H](CCC(=O)O)NC(=O)C(C)(C)NC(=O)[C@@H](N)Cc1c[nH]cn1)[C@@H](C)O)C(C)C)C(=O)N[C@@H](C)C(=O)N[C@@](C)(Cc1c[nH]c2ccccc12)C(=O)N[C@@H](CC(C)C)C(=O)N[C@H](C(=O)N[C@@](C)(CCCCN)C(=O)NCC(=O)N[C@@](C)(CCCNC(=N)N)C(N)=O)C(C)C` [SEQ ID NO: 57, H-(Aib)^2-EG-(S)^5-(α-MeF)^6-TSDV^10 SS-(α-MeY)^13-LE^15 GQAA-(α-MeK)^20 E-(α-MeF)^22-IA-(α-MeW)^25 LV-(α-MeK)^28-G-(α-MeR)^30] the same measures were 6.86, 7.70 and 10.57.
The corresponding values for `CCCCCCCCCCCCCCCC(=O)N[C@@H](CCC(=O)NCCCC[C@H](NC(=O)[C@](C)(CCCNC(=N)N)NC(=O)CNC(=O)[C@](C)(CCCCN)NC(=O)[C@@H](NC(=O)[C@H](CC(C)C)NC(=O)[C@](C)(Cc1c[nH]c2ccccc12)NC(=O)[C@H](C)NC(=O)[C@@H](NC(=O)[C@](C)(Cc1ccccc1)NC(=O)[C@H](CCC(=O)O)NC(=O)[C@](C)(CCCCN)NC(=O)[C@H](C)NC(=O)[C@H](C)NC(=O)[C@H](CCC(N)=O)NC(=O)CNC(=O)[C@H](CCC(=O)O)NC(=O)[C@H](CC(C)C)NC(=O)[C@](C)(Cc1ccc(O)cc1)NC(=O)[C@H](CO)NC(=O)[C@H](CO)NC(=O)[C@@H](NC(=O)[C@H](CC(=O)O)NC(=O)[C@H](CO)NC(=O)[C@@H](NC(=O)[C@](C)(Cc1ccccc1)NC(=O)[C@H](CO)NC(=O)CNC(=O)[C@H](CCC(=O)O)NC(=O)C(C)(C)NC(=O)[C@@H](N)Cc1c[nH]cn1)[C@@H](C)O)C(C)C)[C@@H](C)CC)C(C)C)C(N)=O)C(=O)O` [SEQ ID NO: 58, H-(Aib)^2-EG-(S)^5-(α-MeF)^6-TSDV^10 SS-(α-MeY)^13-LE^15 GQAA-(α-MeK)^20 E-(α-MeF)^22-IA-(α-MeW)^25 LV-(α-MeK)^28-G-(α-MeR)^30-K(Ε-γ-E-Palm)] are 6.98, 6.98 and 10.07.
